# In publication PMC11672551, “Cyclic Ruthenium-Peptide Prodrugs Penetrate the Blood–Brain Barrier and Attack Glioblastoma upon Light Activation in Orthotopic Zebrafish Tumor Models” (ACS Central Science, 2024):
# Assays:
# [1] = tested on: U87MG tumor cells in zebrafish hindbrain; experiment: Tumor targeting in zebrafish embryos, colocalization of drug emission with GFP-U87MG cells in the hindbrain; type: in vivo; conditions: 2 pmol, line-scan profiles of high-resolution images (Figure S35)
# Method: In a second step, the targeting of GBM cells by Ru-p(HH) was tested by detecting the colocalization of the red-emissive drug (excitation: 488 nm; emission detector window: 630–774 nm) with GFP-U87MG cells (excitation: 488 nm; emission: 485–575 nm). To clearly see the distribution of the drug and of the cancer cells in zebrafish, we used Tg(kdrl:mTurquoise)^hu7185Tg embryos. In this transgenic fish line, the blood vessels of the embryos are labeled by the mTurquoise fluorescent protein, which can be excited at 405 nm and emits at 464–480 nm. As shown in Figure 5a and Figure S33a, when only tumor cells were injected into the hindbrain of the zebrafish embryo, GFP was the only signal detected. […] By calculating the distribution and intensity of Ru-p(HH) emission in the region of U87MG cells in the brain, the PCC and MOC values for the top-down view of the hindbrain were determined to be 0.49 and 0.79, respectively, while those in the side images were 0.77 and 0.66 (Figure 5b, Figure S33b).
# Figure 5 Targeting a U87MG brain tumor with Ru-p(HH)in vivo. […] The Z-axis is the cell fluorescence intensity (green) and the drug fluorescence intensity (purple). […] Both PCC and MOC are calculated and are shown in the graph. […]
# [2] = tested on: U87MG-wt and U87MG-kd (ITGAV, integrin αV knockdown) cells; experiment: Cellular ruthenium uptake by ICP-MS in wild type vs ITGAV knockdown cells; type: cell-based, human; conditions: normoxia, 10 μM, 3 h, 2D monolayers, n = 3
# Method: Figure 2 Integrin targeting by Ru-p(HH), Ru-p(MH), and Ru-p(MM)in vitro. (a, b) Expression of integrin (a) αVβ3 and (b) αVβ5 in MCF7, PC-3, A549, MDA-MB-231, U87MG, and U87MG-kd cell lines under normoxic (21% O2) or hypoxic (1% O2) conditions. Note a: ITGAV was knockdown; see Methods. Bars represent the fluorescence intensity of the cells incubated with either anti-integrin αVβ3 or αVβ5 monoclonal antibodies followed by a secondary antibody conjugated to Alexa-Fluor 488. Error: standard deviation (SD), n = 2. (c) Ruthenium accumulation (μg Ru/million cells) of wild type U87MG (U87MG-wt) and ITGAV knockdown U87MG (U87MG-kd) cell lines after treatment with medium (control), Ru-p(HH), Ru-p(MH), Ru-p(MM), or [Ru(Ph2phen)2(bpy)]Cl2 (normoxia, 10 μM, 3 h). Error: standard deviation (SD), n = 3. Two-way ANOVA was used to determine the significance of the comparisons of data (*P < 0.05, **P < 0.01, ***P < 0.001, ****P < 0.0001).
# In order to check whether the integrins […] were responsible for the cellular uptake of these conjugates, an ITGAV (integrin αV) knockdown U87MG cell line (U87MG-kd, Figure 2a,b) was prepared, and the cellular ruthenium uptake was measured using ICP-MS in wild type and knockdown U87MG 2D cell monolayers (Figure 2c). […]
substance,measurement,setting,value
[Ru(Ph2phen)2(bpy)]Cl2,"MOC between prodrug and tumor, comparison with RGD-free control",[1],0.35
same,"PCC between prodrug and tumor, comparison with RGD-free control",[1],−0.2
same,cellular ruthenium uptake in U87MG-kd compared to wild type U87MG,[2],not lowered
